Reference: patent publication US20230062119A1, “USE OF BIOMARKERS IN IDENTIFYING PATIENTS THAT WILL BE RESPONSIVE TO TREATMENT WITH A PRMT5 INHIBITOR” (Merck Sharp & Dohme LLC, priority 2019, published 2023)
Counter-ions that a name gives are not always drawn. Like-named read-outs stand apart in the source and are kept apart here.

Biological target: T1, Full-length (FL)-PRMT5-MEP50 enzyme complex (Homo sapiens, UniProt O14744)
T1 construct: Full-length (FL)-PRMT5-MEP50 enzyme complex (recombinant proteins from baculovirus-transfected Sf21 cells: FL-PRMT5; MW=73837 kDa and FL-MEP50; MW=38614); made in house; host or cells: baculovirus-transfected Sf21 insect cells
T1 sequence (O14744 whole entry): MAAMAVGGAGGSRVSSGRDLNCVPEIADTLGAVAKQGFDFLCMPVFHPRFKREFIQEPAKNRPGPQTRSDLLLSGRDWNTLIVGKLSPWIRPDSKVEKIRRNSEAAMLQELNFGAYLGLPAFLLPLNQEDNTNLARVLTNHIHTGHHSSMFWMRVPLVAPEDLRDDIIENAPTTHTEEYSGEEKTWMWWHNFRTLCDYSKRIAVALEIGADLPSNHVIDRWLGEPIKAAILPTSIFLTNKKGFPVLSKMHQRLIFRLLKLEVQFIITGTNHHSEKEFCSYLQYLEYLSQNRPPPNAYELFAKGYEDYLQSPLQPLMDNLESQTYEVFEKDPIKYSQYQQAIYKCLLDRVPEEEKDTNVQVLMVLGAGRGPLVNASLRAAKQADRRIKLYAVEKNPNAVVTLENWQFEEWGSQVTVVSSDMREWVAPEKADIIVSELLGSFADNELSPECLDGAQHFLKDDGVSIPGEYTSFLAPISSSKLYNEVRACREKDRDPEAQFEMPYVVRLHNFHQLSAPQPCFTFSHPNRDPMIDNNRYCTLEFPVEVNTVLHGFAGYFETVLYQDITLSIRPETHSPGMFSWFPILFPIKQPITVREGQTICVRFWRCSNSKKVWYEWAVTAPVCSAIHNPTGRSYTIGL
T1 sequence (Q9BQA1 whole entry partner): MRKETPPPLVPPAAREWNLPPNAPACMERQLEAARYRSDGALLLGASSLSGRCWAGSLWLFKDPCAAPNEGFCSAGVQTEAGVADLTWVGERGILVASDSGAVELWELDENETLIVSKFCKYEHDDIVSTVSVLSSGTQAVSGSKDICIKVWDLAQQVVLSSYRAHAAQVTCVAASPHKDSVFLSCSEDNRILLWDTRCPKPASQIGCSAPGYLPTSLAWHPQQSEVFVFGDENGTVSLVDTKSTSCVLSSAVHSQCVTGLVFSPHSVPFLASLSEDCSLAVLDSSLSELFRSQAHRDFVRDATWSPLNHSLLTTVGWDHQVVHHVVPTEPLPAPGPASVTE
Assay: PRMT5-MEP50 Enzyme Methylation Assay
Assay type: biochemical
Settings: 1.0 nM PRMT5-MEP50, 75 nM biotinylated peptide, 15 μM SAM
Procedure, shortened: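 Compound was pre-incubated 60 min at 37°C with 1.0 nM enzyme and 15 μM SAM (final) in 50 mM Bicine pH 8.0, then 75 nM biotinylated H4R3(Me1) peptide was added and reacted 150 min; twenty-point 1:2 titration from 100000 nM, 1% DMSO. Formic acid quench; SAMDI mass spectrometry measured Me1-to-Me2 conversion, EC50 by 4- or 7-parameter regression.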

[1] = one EC50: 4 parameters single site sigmoidal model, EC50 1: first value of 7 parameters biphasic model, read-out: Enzyme Methylation Assay (EC50 or EC50 1)
[2] = second EC50 of 7 parameters biphasic model, read-out: Enzyme Methylation Assay (EC50 2)

Row | EC50 [1] | EC50 [2] | SMILES
1 | 0.8 nM |  | CNc1ncnc2c1c(F)cn2[C@@H]1O[C@@H]2[C@H](Cc3ccc4cc(Br)c(N)nc4c3)CC[C@]2(O)[C@H]1O [Example 96, (2R,3R,3aS,6S,6aR)-6-((2-amino-3-bromoquinolin-7-yl)methyl)-2-(5-fluoro-4-(methylamino)-7H-pyrrolo[2,3-d]pyrimidin-7-yl)hexahydro-3aH-cyclopenta[b]furan-3,3a-diol]
2 | 0.8 nM |  | Nc1nc2nc(C[C@@H]3CC[C@@]4(O)[C@@H]3O[C@@H](n3ccc5c(N)ncnc53)[C@@H]4O)ccc2cc1Cl [Example 28, (2R,3R,3aS,6S,6aR)-6-((7-amino-6-chloro-1,8-naphthyridin-2-yl)methyl)-2-(4-amino-7H-pyrrolo[2,3-d]pyrimidin-7-yl)hexahydro-3aH-cyclopenta[b]furan-3,3a-diol trihydrochloride]
3 | 0.3 nM |  | Nc1nc2cc(C[C@H]3[C@H]4O[C@@H](n5ccc6c(N)ncnc65)[C@H](O)[C@@]4(O)C[C@@H]3F)ccc2cc1F [Example 54, (2R,3R,3aS,5S,6S,6aR)-6-[(2-amino-3-fluoroquinolin-7-yl)methyl]-2-(4-amino-7H-pyrrolo[2,3-d]pyrimidin-7-yl)-5-fluorohexahydro-3aH-cyclopenta[b]furan-3,3a-diol]
4 | 0.3 nM |  | Nc1nc2cc(C[C@H]3[C@H]4O[C@@H](n5ccc6c(N)ncnc65)[C@H](O)[C@@]4(O)CC3(F)F)ccc2cc1F [Example 53, (2R,3R,3aS,6S,6aR)-6-[(2-amino-3-fluoroquinolin-7-yl)methyl]-2-(4-amino-7H-pyrrolo[2,3-d]pyrimidin-7-yl)-5,5-difluorohexahydro-3aH-cyclopenta[b]furan-3,3a-diol]
5 | 0.4 nM |  | Cc1cn([C@@H]2O[C@@H]3[C@@H](Oc4ccc5cc(Br)c(N)nc5c4)CC[C@]3(O)[C@H]2O)c2ncnc(N)c12 [Example 60, (2R,3R,3aS,6S,6aR)-6-((2-amino-3-bromoquinolin-7-yl)oxy)-2-(4-amino-5-methyl-7H-pyrrolo[2,3-d]pyrimidin-7-yl)hexahydro-3aH-cyclopenta[b]furan-3,3a-diol]
6 | 0.2 nM |  | Cc1ncnc2c1ccn2[C@@H]1O[C@@H]2[C@H](Cc3ccc4cc(C(F)(F)F)c(N)nc4c3)CC[C@]2(O)[C@H]1O [Example 88, (2R,3R,3aS,6S,6aR)-6-((2-amino-3-(trifluoromethyl)quinolin-7-yl)methyl)-2-(4-methyl-7H-pyrrolo[2,3-d]pyrimidin-7-yl)hexahydro-3aH-cyclopenta[b]furan-3,3a-diol]
7 | 0.5 nM | 56 nM | C[C@@]1(O)[C@@H](COc2ccc3cc(Br)c(N)nc3c2)C[C@@H](n2ccc3c(Cl)ncnc32)[C@@H]1O [Example 1, (1R,2S,3R,5R)-5-(((2-amino-3-bromoquinolin-7-yl)oxy)methyl)-3-(4-chloro-7H-pyrrolo[2,3-d]pyrimidin-7-yl)-1-methylcyclopentane-1,2-diol]
8 | 0.9 nM |  | Cc1nc(C)c2ccn([C@@H]3O[C@@H]4[C@H](Cc5ccc6cc(F)c(N)nc6c5)CC[C@]4(O)[C@H]3O)c2n1 [Example 90, (2R,3R,3aS,6S,6aR)-6-((2-amino-3-fluoroquinolin-7-yl)methyl)-2-(2,4-dimethyl-7H-pyrrolo[2,3-d]pyrimidin-7-yl)hexahydro-3aH-cyclopenta[b]furan-3,3a-diol]
9 | 0.6 nM |  | Nc1ncc2c(F)cn([C@@H]3O[C@@H]4[C@@H](Oc5ccc6cc(Br)c(N)nc6c5)CC[C@]4(O)[C@H]3O)c2n1 [Example 130, (2R,3R,3aS,6S,6aR)-6-((2-amino-3-bromoquinolin-7-yl)oxy)-2-(2-amino-5-fluoro-7H-pyrrolo[2,3-d]pyrimidin-7-yl)hexahydro-3aH-cyclopenta[b]furan-3,3a-diol]
10 | 0.3 nM |  | C[C@]1(COc2ccc3ccc(N)nc3c2)C[C@@H](n2ccc3c(N)ncnc32)[C@H](O)[C@@H]1O [Example 101, (1S,2R,3R,5R)-5-(4-amino-7H-pyrrolo[2,3-d]pyrimidin-7-yl)-3-(((2-aminoquinolin-7-yl)oxy)methyl)-3-methylcyclopentane-1,2-diol]
11 | 0.7 nM |  | Nc1nc2cc(C[C@@H]3CC[C@@]4(O)[C@@H]3C[C@@H](n3cc(F)c5c(N)ncnc53)[C@@H]4O)cc(F)c2cc1F [Example 30, (1S,2R,3aR,4S,6aR)-4-((2-amino-3,5-difluoroquinolin-7-yl)methyl)-2-(4-amino-5-fluoro-7H-pyrrolo[2,3-d]pyrimidin-7-yl)hexahydropentalene-1,6a(1H)-diol]
12 | 0.5 nM |  | C[C@@]1(O)[C@@H](COc2ccc3cc(Br)c(N)nc3c2)C[C@@H](n2ccc3c(N)ncnc32)[C@@H]1O [Example 2, (1R,2S,3R,5R)-5-(((2-amino-3-bromoquinolin-7-yl)oxy)methyl)-3-(4-amino-7H-pyrrolo[2,3-d]pyrimidin-7-yl)-1-methylcyclopentane-1,2-diol]
13 | 0.9 nM | 501 nM | C[C@@]1(O)[C@@H](COc2ccc3cc(Br)c(N)nc3c2)O[C@@H](n2ccc3c(Cl)ncnc32)[C@@H]1O [Example 11, (2R,3S,4R,5R)-2-{[(2-amino-3-bromoquinolin-7-yl)oxy]methyl}-5-(4-chloro-7H-pyrrolo[2,3-d]pyrimidin-7-yl)-3-methyltetrahydrofuran-3,4-diol]
14 | 3.4 nM | 2570 nM | C[C@]1(COc2ccc3cccnc3c2)O[C@@H](n2ccc3c(N)ncnc32)[C@H](O)[C@@H]1O [Example 98, (2R,3S,4R,5R)-5-(4-amino-7H-pyrrolo[2,3-d]pyrimidin-7-yl)-2-methyl-2-((quinolin-7-yloxy)methyl)tetrahydrofuran-3,4-diol]
15 | 11 nM | 8910 nM | Cc1ncnc2c1ccn2[C@@H]1O[C@@H]2[C@H](Cc3cnc4cc(F)c(N)nc4c3)CC[C@]2(O)[C@H]1O [Example 25, (2R,3R,3aS,6S,6aR)-6-((6-amino-7-fluoro-1,5-naphthyridin-3-yl)methyl)-2-(4-methyl-7H-pyrrolo[2,3-d]pyrimidin-7-yl)hexahydro-3aH-cyclopenta[b]furan-3,3a-diol, 3HCl]
16 | 0.5 nM |  | CNc1ncnc2c1ccn2[C@@H]1O[C@@H]2[C@H](Cc3ccc4cc(Br)c(N)nc4c3)CC[C@]2(O)[C@H]1O [Example 92, (2R,3R,3aS,6S,6aR)-6-((2-amino-3-bromoquinolin-7-yl)methyl)-2-(4-(methylamino)-7H-pyrrolo[2,3-d]pyrimidin-7-yl)hexahydro-3aH-cyclopenta[b]furan-3,3a-diol]
17 | 0.7 nM | 143 nM | Nc1ncnc2c1ccn2[C@@H]1O[C@@H]2[C@@H](Oc3ccc4ccc(NCC(F)(F)F)nc4c3)CC[C@]2(O)[C@H]1O [Example 57, (2R,3R,3aS,6S,6aR)-2-(4-amino-7H-pyrrolo[2,3-d]pyrimidin-7-yl)-6-((2-((2,2,2-trifluoroethyl)amino)quinolin-7-yl)oxy)hexahydro-3aH-cyclopenta[b]furan-3,3a-diol]
18 | 0.7 nM |  | Cc1ncnc2c1ccn2[C@@H]1O[C@@H]2[C@@H](Oc3ccc4cc(Br)c(N)nc4c3)CC[C@]2(O)[C@H]1O [Example 7, (2R,3R,3aS,6S,6aR)-6-((2-amino-3-bromoquinolin-7-yl)oxy)-2-(4-methyl-7H-pyrrolo[2,3-d]pyrimidin-7-yl)hexahydro-2H-cyclopenta[b]furan-3,3a-diol]
19 | 0.4 nM |  | Cc1nc(C)c2ccn([C@@H]3O[C@@H]4[C@H](Cc5ccc6cc(Cl)c(N)nc6c5)CC[C@]4(O)[C@H]3O)c2n1 [Example 91, (2R,3R,3aS,6S,6aR)-6-((2-amino-3-chloroquinolin-7-yl)methyl)-2-(2,4-dimethyl-7H-pyrrolo[2,3-d]pyrimidin-7-yl)hexahydro-3aH-cyclopenta[b]furan-3,3a-diol]
20 | 0.5 nM | 191 nM | Nc1nc2cc(C[C@H]3[C@H]4O[C@@H](n5cc(F)c6c(N)ncnc65)[C@H](O)[C@@]4(O)C[C@@H]3F)ccc2cc1F [Example 55, (2R,3R,3aS,5S,6S,6aR)-2-(4-amino-5-fluoro-7H-pyrrolo[2,3-d]pyrimidin-7-yl)-6-[(2-amino-3-fluoroquinolin-7-yl)methyl]-5-fluorohexahydro-3aH-cyclopenta[b]furan-3,3a-diol, 2,2,2-trifluoroethanol]
21 | 0.3 nM |  | Cc1ncnc2c1ccn2[C@@H]1C[C@@H]2[C@H](Cc3ccc4cc(Cl)c(N)nc4c3)CC[C@]2(O)[C@H]1O [Example 17, (1S,2R,3aR,4S,6aR)-4-((2-amino-3-chloroquinolin-7-yl)methyl)-2-(4-methyl-7H-pyrrolo[2,3-d]pyrimidin-7-yl)hexahydropentalene-1,6a(1H)-diol]
22 | 1.6 nM |  | Nc1nc2cc(O[C@H]3CC[C@@]4(O)[C@@H]3O[C@@H](n3ccc5c(N)ncnc53)[C@@H]4O)ccc2cc1F [Example 71, (2R,3R,3aS,6S,6aR)-6-((2-amino-3-fluoroquinolin-7-yl)oxy)-2-(4-amino-7H-pyrrolo[2,3-d]pyrimidin-7-yl)hexahydro-3aH-cyclopenta[b]furan-3,3a-diol]

Row | SMILES | EC50 [1] | EC50 [2]
23 | Cc1nc(C)c2ccn([C@@H]3O[C@@H]4[C@@H](Oc5ccc6cc(Br)c(N)nc6c5)CC[C@]4(O)[C@H]3O)c2n1 [Example 80, (2R,3R,3aS,6S,6aR)-6-((2-amino-3-bromoquinolin-7-yl)oxy)-2-(2,4-dimethyl-7H-pyrrolo[2,3-d]pyrimidin-7-yl)hexahydro-3aH-cyclopenta[b]furan-3,3a-diol 2,2,2-trifluoroacetate] | 2.9 nM | 
